Here are results for six molecules from patent US6682753B2, “Methods for promoting weight gain using GPE-related compounds” (NeuronZ Limited, priority 2001, dated 2004).

The nature of data set [1]: Body weight gain over 14 days in rats after unilateral fimbria-fornix lesion with daily intracerebroventricular infusion. The data set is classed as in vivo, male Wistar rats. The note with it: lesioned rats; daily icv infusion of 2 μL for 14 days: GPE 3 μg/day, IGF-I 20 μg/day, NGF 1 μg/day. An excerpt:
A group of male Wistar rats weighing 174-193 g (University of Auckland, Animal Resources Unit) were divided randomly into the following groups: “control”, “sham”, “vehicle”, “GPE”, “IGF-I”, and “NGF”, depending on the treatment each animal was to undergo. “Control” animals were weighed at the first and last time points and were not treated or handled at any other time. “Sham” animals underwent a sham surgery of anesthesia, incision through the scalp skin, drill hole through the skull, bone wax to seal the drill hole, and sutures for the skin incision. They were then handled daily in mock infusions to mimic handling of animals that received lesions and intracerebroventricular infusions.
“Vehicle”, “GPE”, “IGF-I”, and “NGF” animals were anaesthetized with 75 mg/Kg sodium pentobarbital and positioned in a stereotaxic apparatus (Kopf Instruments, USA), and underwent unilateral fimbria-fomix lesions to lesion septal cholinergic neurons and chronic cannula implantation into the left lateral cerebral ventricle. Fomix-fimbria lesions were performed by transecting the fimbria-fornix projection using a specialized retractable wire Scouten knife (Kopf Instruments) designed to minimize tissue damage except at the required lesion site. Anaesthetized animals received an incision through their scalp skin and a small drill hole was made in the skull at the stereotaxic coordinates anterior-posterior (AP) axis−1.0 mm from the bregma and medial-lateral (ML) axis+2.5 mm from midline (left side), from an atlas of the rat brain (Paxinos et al. (1986), “The rat brain in stereotaxic coordinates”, Academic Press, London). The knife was lowered into the brain through the drill hole to the coordinate+6.0 mm ventral to the skull on the dorsal-ventral (DV) axis. The knife blade was then extended 2.5 mm toward midline at an angle of 30° caudal to the bregma. The knife, with blade extended, was then raised 4.5 mm dorsally to axotomize the fimbria-fomix fibres. The blade was then retracted, the knife lowered 4.5 mm to its original coordinate, and the process was repeated. […]

Data set [2] in a line: Weight gain in human patient suffering from a head injury, central administration (Examples 2-4). The data set is classed as in vivo. The note with it: 14 days. On the procedure: GPE in a dose of 10 μg/Kg/day is administered via lateral cerebroventricular injection into the brain of a human patient suffering from a head injury to promote weight gain to normal levels. Alternatively, a GPE analog is administered. Treatment is commenced as soon as possible after the head injury and then for 14 days thereafter.
A GPE analog in a dose of 20 μg/Kg/day is administered via focal injection into the lateral cerebral ventricle of a human patient suffering from a head injury to promote weight gain to normal levels. Alternatively, GPE is administered. Treatment is commenced as soon as possible after the head injury and then for 14 days thereafter.
GPE in a dose of 5 μg/Kg/day is administered via a surgically inserted shunt into the lateral cerebral ventricle of a human patient suffering from a head injury to promote weight gain to normal levels. Alternatively, a GPE analog is administered. Treatment is commenced as soon as possible after the head injury and then for 14 days thereafter.

For data set [3] the following is noted: administered into the brain following transient ischemia to the forebrain, adult rats; cited from earlier work.
The conditions of data set [4]: infused in the brain of adult rats after partial or full lesions (e.g. partial fimbria-fornix transection); cited from earlier work.

Consider `NCC(=O)N1CCC[C@H]1C(=O)N[C@@H](CCC(=O)O)C(=O)O` [GPE, glycyl-L-prolyl-L-glutamic acid], for which the “weight gain over the 14 days” value in data set [1] is listed as “the normally expected weight gain occurred”. For the same molecule, the “weight gain in patient” value in data set [2] (5 μg/Kg/day via surgically inserted shunt into the lateral cerebral ventricle), in data set [2] (10 μg/Kg/day via lateral cerebroventricular injection) and in data set [2] (20 μg/Kg/day via focal injection into the lateral cerebral ventricle) was “Normal weight gain is promoted” each time.
For the molecule “IGF-I: insulin-like growth factor I (IGF-I)”, the “weight gain over the 14 days” value in data set [1] was “minimal weight gain”. Also, in data set [3], the “effect on body weight” value is “cause weight gain”.
For NGF: Nerve growth factor (NGF), in data set [1], the “weight gain over the 14 days” value is “no weight gain”. The “effect on body weight gain” value in data set [4] is reported as “either decrease normal body weight gain or cause weight loss”.
As to “bFGF: basic fibroblast growth factor (bFGF)”, the “effect on body weight gain” value in data set [4] is “either decrease normal body weight gain or cause weight loss”.

B1: GDNF: glial-derived neurotrophic factor (GDNF) (protein, UniProt P39905 78-211, looked up)
Glial cell line-derived …: SPDKQMAVLPRRERNRQAAAANPENSRGKGRRGQRGKNRGCVLTAIHLNVTDLGLGYETKEELIFRYCSGSCDAAETTYDKILKNLSRNRRLVSDKVGQACCRPIAFDDDLSFLDDNLVYHILRKHSAKRCGCI
Take B1: the “effect on body weight gain” value in data set [4] is “either decrease normal body weight gain or cause weight loss”.

B2: BDNF: brain-derived neurotrophic factor (BDNF) (protein, UniProt P23560 19-247, looked up)
Neurotrophic factor BDNF …: APMKEANIRGQGGLAYPGVRTHGTLESVNGPKAGSRGLTSLADTFEHVIEELLDEDQKVRPNEENNKDADLYTSRVMLSSQVPLEPPLLFLLEEYKNYLDAANMSMRVRRHSDPARRGELSVCDSISEWVTAADKKTAVDMSGGTVTVLEKVPVSKGQLKQYFYETKCNPMGYTKEGCRGIDKRHWNSQCRTTQSYVRALTMDSKKRIGWRFIRIDTSCVCTLTIKRGR
In the case of B2, the “effect on body weight gain” value in data set [4] was “either decrease normal body weight gain or cause weight loss”.
